Columns and labels:
Experiment in all cases: Field trial in corn at V3, broadcast treatment on 2-4 inch weeds, % weed control
palmer amaranth = format: in vivo, Amaranthus palmeri
Source text: (§1) The herbicides tested were glufosinate, glyphosate, and mesotrione. Each herbicide was combined at the specified rate with either deionized water or SymMAX™ supramolecular host water mixture commercially available from Shotwell Hydrogenics at 15 gallons per acre (GPA). Specified rates for glufosinate were 22 ounces per acre, 11 ounces per acre, and 5.5 ounces per acre. Specified rates for glyphosate were 22 ounces per acre, 11 ounces per acre, and 5.5 ounces per acre. Specified rates for mesotrione were 3 ounces per acre, 2 ounces per acre, and 1 ounce per acre.
(§2) This example was conducted as a 4 replicate, RCBD (randomized control block design) in Quitman, GA. An untreated control was used as a standard that provided no weed control and no phytotoxicity. All treatments were compared to the untreated control. Counted dead weeds and living weeds were used to determine % weed control. The untreated control was also used to determine % crop phytotoxicity for the crop. Typical indications of phytotoxicity include chlorosis, stunting, epinasty, and/or leaf burn.
(§3) The trial ran for 14 days with weekly data assessments taken on % crop phytotoxicity and % weed control of four key species: palmer amaranth (Amaranthus palmeri), ivyleaf morning glory (Ipomoea hederacea), fall panicum (Panicum dichotomiflorum) and large crabgrass (Digitaria sanguinalis The test field was over seeded with weed seed obtained from the University of Georgia prior to corn planting. Treatments were applied as a broadcast treatment when corn had reached physiological growth stage V3 and weeds were in the 2-4″ size range. Treatments were applied at various rates ranging from about 1 ounce per acre to about 22 ounces per acre. Tables 9-10 show the % weed control when the weeds are treated with glufosinate. Tables 11-12 show the % weed control when the weeds are treated with glyphosphate. Tables 13-14 show the % weed control when the weeds are treated with mesotrione.

large crabgrass = format: in vivo, Digitaria sanguinalis
Source text: as §1, §2, §3

fall panicum = format: in vivo, Panicum dichotomiflorum
Source text: as §1, §2, §3

ivyleaf morning glory = format: in vivo, Ipomoea hederacea
Source text: as §1, §2, §3

[1] = 7 days, glyphosate 5.5 ounces/acre
[2] = 7 days, glyphosate 11 ounces/acre
[3] = 7 days, glyphosate 22 ounces/acre
[4] = 14 days, glyphosate 5.5 ounces/acre
[5] = 14 days, glyphosate 11 ounces/acre
[6] = 14 days, glyphosate 22 ounces/acre

O=C(O)CNCP(=O)(O)O [Glyphosate, glyphosate]
% WEED CONTROL FOR PALMER AMARANTH (palmer amaranth; [1]): 63.8% | % WEED CONTROL FOR PALMER AMARANTH (palmer amaranth; [2]): 76.4% | % WEED CONTROL FOR PALMER AMARANTH (palmer amaranth; [3]): 81.9% | % WEED CONTROL FOR PALMER AMARANTH (palmer amaranth; [4]): 58.3% | % WEED CONTROL FOR PALMER AMARANTH (palmer amaranth; [5]): 75.8% | % WEED CONTROL FOR PALMER AMARANTH (palmer amaranth; [6]): 83.5% | % WEED CONTROL FOR LARGE CRABGRASS (large crabgrass; [1]): 90.8% | % WEED CONTROL FOR LARGE CRABGRASS (large crabgrass; [2]): 97.8% | % WEED CONTROL FOR LARGE CRABGRASS (large crabgrass; [3]): 100.0% | % WEED CONTROL FOR LARGE CRABGRASS (large crabgrass; [4]): 89.0% | % WEED CONTROL FOR LARGE CRABGRASS (large crabgrass; [5]): 94.0% | % WEED CONTROL FOR LARGE CRABGRASS (large crabgrass; [6]): 98.0% | % WEED CONTROL FOR FALL PANICUM (fall panicum; [1]): 85.8% | % WEED CONTROL FOR FALL PANICUM (fall panicum; [2]): 97.5% | % WEED CONTROL FOR FALL PANICUM (fall panicum; [3]): 98.8% | % WEED CONTROL FOR FALL PANICUM (fall panicum; [4]): 81.8% | % WEED CONTROL FOR FALL PANICUM (fall panicum; [5]): 95.4% | % WEED CONTROL FOR FALL PANICUM (fall panicum; [6]): 98.4% | % WEED CONTROL FOR IVYLEAF MORNINGLORY (ivyleaf morning glory; [1]): 14.3% | % WEED CONTROL FOR IVYLEAF MORNINGLORY (ivyleaf morning glory; [2]): 13.5% | % WEED CONTROL FOR IVYLEAF MORNINGLORY (ivyleaf morning glory; [3]): 28.0% | % WEED CONTROL FOR IVYLEAF MORNINGLORY (ivyleaf morning glory; [4]): 9.7% | % WEED CONTROL FOR IVYLEAF MORNINGLORY (ivyleaf morning glory; [5]): 59.8% | % WEED CONTROL FOR IVYLEAF MORNINGLORY (ivyleaf morning glory; [6]): 76.3%
